# Measurements published in patent US11378572B2, “Therapeutic agent for immune cell migration-caused disease and method for screening same” (ZYMEDI CO., LTD., priority 2017, dated 2022).
# What was measured:
# RAW 264.7 cells = test: Transwell migration assay of monocytes/macrophages; format: cell-based
# Procedure: Among several extracellular matrix (ECM), it was examined which ECM promotes the migration and infiltration of immune cells, typically monocytes/macrophages. A transwell migration assay was performed using collagen (Col), fibronectin (FN) and laminin (LN) as extracellular matrices, and detailed methods were as follows. Transwells (Corning, #3421-5 mm) were coated with gelatin (0.5 mg/ml) and RAW 264.7 cells (1×10^5 cells/well) were seeded into the top chambers. Serum free DMEM (500 μl) containing 10 μg/ml of laminin (laminin mixture, Biolamina), fibronectin or collagen, respectively, was placed in the bottom chambers. After 24 hours, cells were fixed with 70% methanol for 30 minutes and stained with 50% hematoxylin for 30 minutes. After removing non-migrating cells from the top of the membrane with a cotton swab, the membrane was taken and mounted on the slide. Migrating cells on the underside of the membrane were observed and quantified under a high magnification microscope.
# Effect of laminin subtypes on the immune cell migration and infiltration was evaluated. A transwell migration assay was performed in the same manner as in Example 1 using LN111, LN211, LN221, LN411, LN421, LN511, and LN521 as various laminin subtype proteins (purchased from Biolamina). Specific sequences of laminin subtypes are referred to α4 chain of SEQ ID NO:4, α2 chain of SEQ ID NO: 10, α5 chain of SEQ ID NO: 11, β2 chain of SEQ ID NO:6, β1 chain of SEQ ID NO: 12, γ1 chain of SEQ ID NO: 8. according to the chain forming each laminin subtype,
# For each of the transformed macrophages, a transwell migration assay was performed in the same manner as in Example 1 using 1 μg/ml of laminin 421.
# Thus identified agents as inhibiting the translocation of KRS to the plasma membrane was added to the LN421-treated macrophages to perform a transwell migration assay. […] Migrating cells on the underside of the membrane were observed and quantified under a high magnification microscope. […]
# PAH model = test: Monocrotaline PAH model, anti-KRS antibody; format: in vivo, SD rats
# Text: To induce PAH in 7-week-old SD rats (Orient bio), 60 mpk of MCT (monocrotaline) was subcutaneously injected. Then rats were divided into 4 groups (5 animals in each group), and administered with either of 1 mpk of mock human IgG (Thermo Fisher Scientific, negative control), 1 mpk or 10 mpk of anti-KRS antibody (N3 antibody), 25 mpk of sildenafil (positive control) for 3 weeks. All antibodies were intravenously injected twice a week and sildenafil was orally administered everyday.
# Three weeks later, rats were anesthetized with isoflurane, and blood flow and pressure were measured using an MPVS cardiovascular pressure and volume system (model name: MPVS Ultra, manufactured by Millar Instruments). Right ventricular systolic pressure (RVESP) and diastolic pressure, left ventricular systolic pressure and diastolic pressure were measured using a dedicated catheter (Mikro-Tip rat pressure catheter, manufactured by Millar Instruments). Cardiac output was measured using a perivascular blood flow probe (Transonic® Flowprobes, manufactured by […]), and experimental techniques were performed in the same manner as described in the literature: Pacher P, Nagayama T, Mukhopadhyay P, Batkai S, Kass D A. Measurement of cardiac function using pressure-volume conductance catheter technique in mice and rats. Nat Protoc 2008, 3(9):1422-34.
# Collected lungs were fixed in PFA (paraformaldehyde) according to a conventional procedure, and then embedded in paraffin through water washing, dehydration, and tissue clearing processes. Lung tissue paraffin blocks of rats were cut to a thickness of […] and slides were prepared. Thereafter, staining was performed as follows. First, slides were treated with xylene 3 times for 5 minutes, followed by treatments with 100% ethanol, 95% ethanol, 90% ethanol, 70% ethanol, DW for 2 minutes in this order and washed with PBS for 5 minutes. After treatment with 0.3% H2O2, slides were washed twice with PBS for 5 minutes. After soaking in 0.01M citrate buffer and heating, slides were washed with PBS-T (0.03% tween 20). After 30 minutes blocking at room temperature (2% BSA & 2% goat serum in PBS), tissues were stained with anti-CD68 antibody (1:200, ED1 clone, Abcam) overnight at 4° C. After washing three times with PBS-T for 5 minutes, tissues were treated with polymer-HRP anti-mouse envision kit (DAKO) for 1 hour at 4° C. After washing three times with PBS-T, color was developed by treatment with DAB substrate buffer and DAB chromogen 20. Thus stained tissues were treated with Mayer's hematoxylin (Sigma) for 1 minute, and then treated twice for 2 minutes in the order of 70% ethanol, 90% ethanol, 95% ethanol, and 100% ethanol. Finally, xylene was treated three times for 5 minutes and observed with an optical microscope.
# KRS = biological target: T1, KRS (Mus musculus, UniProt Q99MN1); test: KRS level in plasma membrane/cytosol fractions by western blot (KRS translocation to the plasma membrane); format: cell-based; details: RAW 264.7 cells, LN421 l g/ml, 0, 12, 24 hour
# T1 construct: KRS, which is expressed in monocytes/macrophages and usually present in the cytoplasmic domain, translocates to the plasma membrane by LN421 treatment; endogenous in cells; host or cells: RAW 264.7
# T1 sequence (Q99MN1 whole entry, the tested form may be a part): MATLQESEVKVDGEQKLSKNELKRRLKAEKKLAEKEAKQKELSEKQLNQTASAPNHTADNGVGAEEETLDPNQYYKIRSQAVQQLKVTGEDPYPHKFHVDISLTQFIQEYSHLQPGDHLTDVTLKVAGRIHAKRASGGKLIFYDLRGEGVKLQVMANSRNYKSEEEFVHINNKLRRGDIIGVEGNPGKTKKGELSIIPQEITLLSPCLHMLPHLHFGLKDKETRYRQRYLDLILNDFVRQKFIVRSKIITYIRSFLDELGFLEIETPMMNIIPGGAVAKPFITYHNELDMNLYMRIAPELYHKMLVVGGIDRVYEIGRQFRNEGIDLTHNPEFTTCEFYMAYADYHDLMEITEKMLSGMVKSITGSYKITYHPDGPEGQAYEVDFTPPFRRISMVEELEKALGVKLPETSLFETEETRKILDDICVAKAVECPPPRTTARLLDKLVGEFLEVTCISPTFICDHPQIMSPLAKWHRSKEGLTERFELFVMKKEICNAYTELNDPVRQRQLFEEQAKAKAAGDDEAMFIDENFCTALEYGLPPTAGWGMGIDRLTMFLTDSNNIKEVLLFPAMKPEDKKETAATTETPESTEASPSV
# Procedure: After dispensing RAW 264.7 cells (2×10^6 cells) in 100 mm dish and incubating for 18 hours, cells were treated with LN421 l g/ml in serum free DMEM media and harvested at 0 hour, 12 hour, 24 hour. Proteins of RAW 264.7 cells were separated into the cytosol and membrane fractions using ProteoExtract Subcellular Proteome Extraction Kit (Calbiotech, cat #539790). Obtained proteins were electrophoresed and transferred to PVDF membrane (Milipore) and blocked with 3% skim milk. KRS was then detected by western blot. Specifically, KRS polyclonal antibody (rabbit, Neomics, Co. Ltd. #NMS-01-0005) was added and reacted for 1 hour. Unbound antibody was removed and the membrane was added and reacted with anti-rabbit secondary antibody (ThermoFisher Scientific, #31460). After reacting with the secondary antibody, films were exposed in the dark room using ECL reagent as a substrate. […]
# First, in order to determine whether various KRS inhibitor candidates could exert inhibitory effect on the KRS translocation to the plasma membrane, RAW 264.7 cells (2×10^6 cells) were dispensed in 100 mm dishes and incubated for 18 hours, followed by treatment with laminin 421 1 μg/ml in serum free DMEM, and 100 nM of each of various KRS inhibitor candidates, and cells were further incubated for 12 hours. […] Afterwards, KRS was detected by western blot, and the specific method were as described in Example 3. […]
# [1] = MCT + sildenafil 25 mpk oral everyday, 3 weeks (n = 5)
compound,measurement,setting,value
laminin [reference compound],migration of monocytes/macrophages among extracellular matrices,"RAW 264.7 cells; 10 μg/ml in bottom chamber, 24 hours, versus collagen, fibronectin",most strongly promoted
CCCc1nn(C)c2c(=O)[nH]c(-c3cc(S(=O)(=O)N4CCN(C)CC4)ccc3OCC)nc12 [sildenafil],CO,"PAH model; MCT + sildenafil 25 mpk oral everyday, 3 weeks (n = 4)",49.6 ± 17.7 mL/min
same,LVEDP,PAH model; [1],3.6 ± 2.3 mmHg
same,LVESP,PAH model; [1],83.2 ± 4.7 mmHg
same,RVEDP,PAH model; [1],2.6 ± 1.3 mmHg
same,RVESP,PAH model; [1],48.4 ± 9.6 mmHg
same,"body weight, absolute change",PAH model; MCT + sildenafil (n = 5),104.1 ± 26.4 g
same,"body weight, relative change",PAH model; MCT + sildenafil (n = 5),49.8 ± 10.5%
same,findings of D-shaped left ventricle (echocardiography),PAH model; number of animals with finding,three mice
"LN421: laminin subtype α4β2γ1, purchased from Biolamina [reference compound]",migration of monocytes/macrophages among laminin subtypes,"RAW 264.7 cells; LN111, LN211, LN221, LN411, LN421, LN511, LN521 compared",specifically reacted
same,level of KRS detection in the plasma membrane fractions,KRS,increased
